Where two headings read alike, the source gives them in different places.
Key:
[1] = tested on: primary human T-cells; assay: Proliferation assay after 5 days (CellTiter-Glo, CD3 stimulation; PBS counter screen); type: cell-based; details: Homo sapiens, T-cell, 120 h, CD3 stimulation; for Emax: 5 days, normalized to reference compound A1 as stimulator control = 100%, DMSO neutral control, read-out: Emax proliferation (% activation); for EC50: primary human T-cells, CellTiter-Glo after 5 days, EC50 of fitted sigmoidal curve, read-out: Tcell Proliferation CD3 EC50
Procedure, shortened: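 ATP-based luminescence (CellTiter-Glo 2.0, room temperature) measured proliferation 5 days after compound addition to CD3-stimulated or unstimulated primary human T-cells. Flags marked compounds that lowered viability or activated unstimulated cells.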

[2] = tested on: primary human T-cells

| EC50 [2] [nM] | Structure (SMILES) | Emax [1] [%] | EC50 [1] [µM] |
| --- | --- | --- | --- |
| 335 | CS(=O)(=O)N1CCC2CC2(c2nnc(-c3cc4c(cc3F)S(=O)(=O)C[C@H](N)C(=O)N4Cc3ccc(Cl)cc3)o2)C1 (stereo partly drawn) [Example 179, (3R)-3-amino-5-[(4-chlorophenyl)methyl]-8-fluoro-7-[5-(3-methylsulfonyl-3-azabicyclo[4.1.0]heptan-1-yl)-1,3,4-oxadiazol-2-yl]-1,1-dioxo-2,3-dihydro-1λ^6,5-benzothiazepin-4-one] | 80 | 1.58 |
| 2380 | CC(=O)N1CCC2CC2(c2nnc(-c3cc4c(cc3F)S(=O)(=O)C[C@H](N)C(=O)N4Cc3ccc(Cl)cc3)o2)C1 (stereo partly drawn) [Example 180, (3R)-7-[5-(3-acetyl-3-azabicyclo[4.1.0]heptan-1-yl)-1,3,4-oxadiazol-2-yl]-3-amino-5-[(4-chlorophenyl)methyl]-8-fluoro-1,1-dioxo-2,3-dihydro-1λ^6,5-benzothiazepin-4-one] | 103 | 5.71 |
| 1990 | CS(=O)(=O)N1CC2CC2(c2nnc(-c3cc4c(cc3F)S(=O)(=O)C[C@H](N)C(=O)N4Cc3ccc(Cl)cc3)o2)C1 (stereo partly drawn) [Example 181, (3R)-3-amino-5-[(4-chlorophenyl)methyl]-8-fluoro-7-[5-(3-methylsulfonyl-3-azabicyclo[3.1.0]hexan-1-yl)-1,3,4-oxadiazol-2-yl]-1,1-dioxo-2,3-dihydro--benzothiazepin-4-one] | 107 | 7.83 |
| 1590 | CC(=O)N1CC2CC2(c2nnc(-c3cc4c(cc3F)S(=O)(=O)C[C@H](N)C(=O)N4Cc3ccc(Cl)cc3)o2)C1 (stereo partly drawn) [Example 182, (3R)-7-[5-(3-acetyl-3-azabicyclo[3.1.0]hexan-1-yl)-1,3,4-oxadiazol-2-yl]-3-amino-5-[(4-chlorophenyl)methyl]-8-fluoro-1,1-dioxo-2,3-dihydro-1λ^6,5-benzothiazepin-4-one] | 38 | > 10 |
| 43 | COC(=O)N1CC2CC2(c2nnc(-c3cc4c(cc3F)S(=O)(=O)C[C@H](N)C(=O)N4Cc3ccc(Cl)cc3)o2)C1 (stereo partly drawn) [Example 183, methyl 1-[5-[(3R)-3-amino-5-[(4-chlorophenyl)methyl]-8-fluoro-1,1,4-trioxo-2,3-dihydro-1λ^6,5-benzothiazepin-7-yl]-1,3,4-oxadiazol-2-yl]-3-azabicyclo[3.1.0]hexane-3-carboxylate] | 131 | 0.336 |
| 4930 | N[C@H]1CS(=O)(=O)c2cc(F)c(-c3nnc(C(F)(F)C(F)(F)F)o3)cc2N(Cc2ccc(Cl)cc2)C1=O [Example 185, (3R)-3-amino-5-[(4-chlorophenyl)methyl]-8-fluoro-1,1-dioxo-7-[5-(1,1,2,2,2-pentafluoroethyl)-1,3,4-oxadiazol-2-yl]-2,3-dihydro-1λ^6,5-benzothiazepin-4-one] | 13 | > 10 |
| 3180 | CC(C)(CO)c1nnc(-c2cc3c(cc2F)S(=O)(=O)C[C@H](N)C(=O)N3Cc2ccc(C#N)cc2)o1 [Example 188, 4-[[(3R)-3-amino-8-fluoro-7-[5-(2-hydroxy-1,1-dimethyl-ethyl)-1,3,4-oxadiazol-2-yl]-1,1,4-trioxo-2,3-dihydro-1λ^6,5-benzothiazepin-5-yl]methyl]benzonitrile] | 29 | > 10 |
| > 2730 | CC(C)(C)c1nnc(-c2cc3c(cc2F)S(=O)(=O)C[C@H](N)C(=O)N3Cc2ccc(OCCCCCCCCCCCNC(=O)CCC3=CC4=Cc5ccc(-c6ccc[nH]6)n5[B-](F)(F)[N+]4=C3)cc2)o1 [Example 189, 3-[2,2-difluoro-12-(1H-pyrrol-2-yl)-1-aza-3-azonia-2-boranuidatricyclo[7.3.0.03,7]dodeca-3,5,7,9,11-pentaen-5-yl]-N-[11-[4-[[(3R)-3-amino-7-(5-tert-butyl-1,3,4-oxadiazol-2-yl)-8-fluoro-1,1,4-trioxo-2,3-dihydro-1λ^6,5-benzothiazepin-5-yl]methyl]phenoxy]undecyl]propanamide] | 134 | 0.68 |

Reference: patent US20240368150A1 (Hoffmann-La Roche Inc., priority 2021, published 2024)
